Each structure is given as a SMILES string. Square brackets hold non-standard residues; d marks the D form. Peptide text beside a SMILES is read from it. NMeY = CN[C@@H](Cc1ccc(O)cc1)C(=O)O; hLeu = CC(C)CC[C@H](N)C(=O)O; NMeA = CN[C@@H](C)C(=O)O; Nle = CCCC[C@H](N)C(=O)O; Orn = NCCC[C@H](N)C(=O)O A value given as a limit tells only on which side of the number the result lay.

Usually EC50 stands for the concentration that produces a half-maximal response.

One test concerns the target T1, PD-1/PD-L1 (Homo sapiens, UniProt Q15116).
T1 construct: this kit uses ectodomains of PD-1 and PD-L1 that are expressed with orthogonal fusion tags (Tag-1 and Tag-2); purchased CisBio (currently Perkin-Elmer, Bedford, MA)
In words: In vitro time-resolved FRET PD-1/PD-L1 binding assay (CisBio kit). Particulars: CisBio PD-1/PD-L1 binding kit, TR FRET, 96-well, 4-fold serial dilutions in triplicate, freshly dissolved peptides; read-out: IC50, inhibition of PD-1/PD-L1 binding (TR FRET assay). The protocol:
Commercial PD-1/PD-L1 binding assay kit (CisBio, currently Perkin-Elmer, Bedford, MA) for time resolve fluorescent energy transfer (FRET) was used to assess peptides binding to PD-1. The assay for peptide screening was performed in a 96-well format (normal pressure), starting with 4-fold serial dilutions of each peptide in triplicate. No-peptide triplicate wells were used to assess fluorescent energy transfer in the absence of inhibition, and no-PD-1/PD-L1 triplicate wells were used to assess the background fluorescent energy transfer in the absence of PD-1/PD-L1 complexes. More detailed concentration dependences were obtained for selected peptides. Only freshly dissolved peptides were used in the assay. Various QSAR (quantitative structure activity relationship) hypotheses were tested by synthesizing batches of 10–12 peptides. In total, over one hundred candidates in ten iterations were screened for their ability to inhibit in vitro PD-1/PD-L1 binding using the commercial PD-1/PD-L1 binding assay kit (CisBio, currently Perkin-Elmer). Briefly, this kit uses ectodomains of PD-1 and PD-L1 that are expressed with orthogonal fusion tags (Tag-1 and Tag-2). It also includes two antibodies to selectively interact with these tags. The antibody against one tag is labeled with fluorescent moiety, which serves as a donor, while the other antibody is labeled with fluorescent moiety, which serves as an acceptor in fluorescent resonance energy transfer (FRET). When the complex is formed and probed with both anti-Tag-1 and anti-Tag-2 antibodies, donor and acceptor are sufficiently close, and FRET can be detected in a time-resolved (TR) manner. Inhibitors of PD-1/PD-L1 interactions prevent complex formation, leading to a decrease in TR FRET in a concentration-dependent manner, as shown in Figure 2 for four representative peptide inhibitors. Initial fourfold dilutions are exemplified by data for peptides B5.11 and B5.6 (panels A and B); examples of the more detailed follow-up concentration dependences are shown for peptides B2.4 and B2.22 (panels C and D). The potency of the inhibitors is then characterized by IC50, a concentration that inhibits TR FRET by 50%, allowing for a facile comparison of different inhibitors (Figure 2E).
In general terms: In TR-FRET formats the signal depends on donor and acceptor labels being close together.
Regarding `CCCC[C@H](NC(=O)[C@@H](NC(=O)[C@H](CCCNC(=N)N)NC(C)=O)C(C)C)C(=O)N[C@H](C(=O)N[C@H](C(=O)N[C@H](C(=O)NCC(=O)N[C@@H](C)C(=O)N[C@@H](C)C(=O)N[C@@H](Cc1c[nH]c2ccccc12)C(=O)N[C@@H](CC(=O)O)C(=O)N[C@@H](Cc1ccc(O)cc1)C(=O)N[C@@H](CCCCN)C(=O)N[C@@H](Cc1ccc(O)cc1)C(N)=O)C(C)C)[C@@H](C)CC)C(C)C` [B2.4] (Ac-RV[Nle]VIVGAAWDYKY-NH2), the IC50 was 0.5 µM.

Still in this test, the particulars now being: CisBio PD-1/PD-L1 binding kit, TR FRET, 96-well, serial dilutions in triplicate; NI = no inhibition at maximum concentration tested (* 5 μM, ** 50 μM); read-out: EC50 (Supplementary Table S1; inhibition of PD-1/PD-L1 binding by in vitro TR-FRET assay).
`CCCC[C@H](NC(=O)[C@@H](NC(=O)[C@H](CCCNC(=N)N)NC(C)=O)C(C)C)C(=O)N[C@H](C(=O)N[C@H](C(=O)N[C@H](C(=O)NCC(=O)N[C@@H](C)C(=O)N[C@@H](C)C(=O)N[C@@H](Cc1c[nH]c2ccccc12)C(=O)N[C@@H](CC(=O)O)C(=O)N[C@@H](Cc1ccc(O)cc1)C(=O)N[C@@H](CCCCN)C(=O)N[C@@H](Cc1ccc(O)cc1)C(N)=O)C(C)C)[C@@H](C)CC)C(C)C` [B2.4] (Ac-RV[Nle]VIVGAAWDYKY-NH2): the EC50 worked out at 0.5 µM. Still for that read-out and setting: in the case of `CCCC[C@H](NC(C)=O)C(=O)N[C@H](C(=O)N[C@@H](CC(C)C)C(=O)N[C@H](C(=O)N[C@H](C(=O)N[C@H](C(=O)NCC(=O)N[C@@H](C)C(=O)N[C@@H](C)C(=O)N[C@@H](Cc1c[nH]c2ccccc12)C(=O)N[C@@H](CC(=O)O)C(=O)N[C@@H](Cc1ccc(O)cc1)C(=O)N[C@@H](CCCCN)C(=O)N[C@@H](CCCNC(=N)N)C(N)=O)C(C)C)[C@@H](C)CC)C(C)C)C(C)C` [B2.5] (Ac-[Nle]VLVIVGAAWDYKR-NH2) it was 11 µM; in that of `CCCC[C@H](NC(C)=O)C(=O)N[C@H](C(=O)N[C@@H](CC(C)C)C(=O)N[C@H](C(=O)N[C@H](C(=O)N[C@H](C(=O)NCC(=O)N[C@@H](C)C(=O)N[C@@H](C)C(=O)N[C@@H](Cc1c[nH]c2ccccc12)C(=O)N[C@@H](CC(=O)O)C(=O)N[C@@H](CCCNC(=N)N)C(=O)N[C@@H](CCCCN)C(=O)N[C@@H](Cc1ccc(O)cc1)C(N)=O)C(C)C)[C@@H](C)CC)C(C)C)C(C)C` [B2.16] (Ac-[Nle]VLVIVGAAWDRKY-NH2), 1 µM; in that of `CCCC[C@H](NC(=O)[C@@H](NC(=O)[C@H](CC(C)C)NC(=O)[C@@H](NC(=O)[C@H](CCCNC(=N)N)NC(C)=O)C(C)C)C(C)C)C(=O)N[C@H](C(=O)NCC(=O)N[C@@H](C)C(=O)N[C@@H](C)C(=O)N[C@@H](Cc1c[nH]c2ccccc12)C(=O)N[C@@H](CC(=O)O)C(=O)N[C@@H](Cc1ccc(O)cc1)C(=O)N[C@@H](CCCCN)C(=O)N[C@@H](Cc1ccc(O)cc1)C(N)=O)C(C)C` [B2.17] (Ac-RVLV[Nle]VGAAWDYKY-NH2), 4 µM. Still for that read-out and setting: with `CC(=O)N[C@@H](CCCNC(=N)N)C(=O)N[C@H](C(=O)N[C@@H](CCC(C)C)C(=O)N[C@H](C(=O)N[C@@H](CCC(C)C)C(=O)N[C@H](C(=O)NCC(=O)N[C@@H](C)C(=O)N[C@@H](C)C(=O)N[C@@H](Cc1c[nH]c2ccccc12)C(=O)N[C@@H](CC(=O)O)C(=O)N[C@@H](Cc1ccc(O)cc1)C(=O)N[C@@H](CCCCN)C(=O)N[C@@H](Cc1ccc(O)cc1)C(N)=O)C(C)C)C(C)C)C(C)C` [B2.27] (Ac-RV[hLeu]V[hLeu]VGAAWDYKY-NH2) the figure was 1.8 µM; with `CC[C@H](C)[C@H](NC(=O)[C@@H](NC(=O)[C@H](CC(C)C)NC(=O)[C@@H](NC(=O)[C@H](CCCNC(=N)N)NC(C)=O)C(C)C)C(C)C)C(=O)N[C@H](C(=O)NCC(=O)N[C@@H](C)C(=O)N[C@@H](C)C(=O)N[C@@H](CCC(C)C)C(=O)N[C@@H](CC(=O)O)C(=O)N[C@@H](Cc1ccc(O)cc1)C(=O)N[C@@H](CCCCN)C(=O)N[C@@H](Cc1ccc(O)cc1)C(N)=O)C(C)C` [B2.32] (Ac-RVLVIVGAA[hLeu]DYKY-NH2), 22 µM; with `CC(=O)N[C@@H](CCC(C)C)C(=O)N[C@H](C(=O)N[C@@H](CCC(C)C)C(=O)N[C@H](C(=O)NCC(=O)N[C@@H](C)C(=O)N[C@@H](C)C(=O)N[C@@H](Cc1c[nH]c2ccccc12)C(=O)N[C@@H](CC(=O)O)C(=O)N[C@@H](Cc1ccc(O)cc1)C(=O)N[C@@H](CCCCN)C(=O)N[C@@H](Cc1ccc(O)cc1)C(N)=O)C(C)C)C(C)C` [B3.3] (Ac-[hLeu]V[hLeu]VGAAWDYKY-NH2), 35 µM. On the same count and under the same terms, with `CC[C@H](C)[C@H](NC(=O)[C@@H](NC(=O)[C@H](CC(C)C)NC(C)=O)C(C)C)C(=O)N[C@H](C(=O)NCC(=O)N(C)[C@@H](C)C(=O)N[C@@H](C)C(=O)N[C@@H](Cc1c[nH]c2ccccc12)C(=O)N[C@@H](CC(=O)O)C(=O)N[C@@H](Cc1ccc(O)cc1)C(=O)N[C@@H](CCCCN)C(=O)N(C)[C@@H](Cc1ccc(O)cc1)C(N)=O)C(C)C` [B3.10] (Ac-LVIVG[NMeA]AWDYK[NMeY]-NH2) the figure was greater than 50 µM; with `CC(=O)N[C@@H](CCC(C)C)C(=O)N[C@H](C(=O)N[C@@H](CCC(C)C)C(=O)N[C@H](C(=O)NCC(=O)N[C@@H](C)C(=O)N[C@@H](C)C(=O)N[C@@H](Cc1c[nH]c2ccccc12)C(=O)N[C@@H](CC(=O)O)C(=O)N[C@@H](CCCNC(=N)N)C(=O)N[C@@H](CCCCN)C(=O)N[C@@H](Cc1ccc(O)cc1)C(N)=O)C(C)C)C(C)C` [B3.20] (Ac-[hLeu]V[hLeu]VGAAWDRKY-NH2), greater than 5 µM; with `CC(=O)N[C@@H](CCC(C)C)C(=O)N[C@H](C(=O)N[C@@H](Cc1c[nH]c2ccccc12)C(=O)N[C@H](C(=O)NCC(=O)N[C@@H](C)C(=O)N[C@@H](C)C(=O)N[C@@H](Cc1c[nH]c2ccccc12)C(=O)N[C@@H](CC(=O)O)C(=O)N[C@@H](CCCNC(=N)N)C(=O)N[C@@H](CCCCN)C(=O)N[C@@H](Cc1ccc(O)cc1)C(N)=O)C(C)C)C(C)C` [B3.21] (Ac-[hLeu]VWVGAAWDRKY-NH2), greater than 5 µM. Regarding `CC[C@H](C)[C@H](NC(=O)[C@@H](NC(=O)[C@H](CC(C)C)NC(C)=O)C(C)C)C(=O)N[C@H](C(=O)NCC(=O)N[C@@H](C)C(=O)N[C@@H](CCCN)C(=O)N[C@@H](Cc1c[nH]c2ccccc12)C(=O)N[C@@H](CC(=O)O)C(=O)N[C@@H](Cc1ccc(O)cc1)C(=O)N[C@@H](CCCCN)C(=O)N[C@@H](Cc1ccc(O)cc1)C(N)=O)C(C)C` [B3.22] (Ac-LVIVGA[Orn]WDYKY-NH2), the EC50 is greater than 5 µM.

For `CC(=O)N[C@@H](CCC(C)C)C(=O)N[C@H](C(=O)N[C@@H](Cc1c[nH]c2ccccc12)C(=O)N[C@H](C(=O)NCC(=O)N[C@@H](C)C(=O)N[C@@H](CCCN)C(=O)N[C@@H](Cc1c[nH]c2ccccc12)C(=O)N[C@@H](CC(=O)O)C(=O)N[C@@H](CCCNC(=N)N)C(=O)N[C@@H](CCCCN)C(=O)N[C@@H](Cc1ccc(O)cc1)C(N)=O)C(C)C)C(C)C` [B3.23] (Ac-[hLeu]VWVGA[Orn]WDRKY-NH2), the EC50 was greater than 5 µM. On the same count and under the same terms, in the case of `CCCC[C@H](NC(C)=O)C(=O)N[C@H](C(=O)N[C@H](C(=O)N[C@H](C(=O)NCC(=O)N[C@@H](C)C(=O)N[C@@H](C)C(=O)N[C@@H](Cc1c[nH]c2ccccc12)C(=O)N[C@@H](CC(=O)O)C(=O)N[C@@H](Cc1ccc(O)cc1)C(=O)N[C@@H](CCCCN)C(=O)N[C@@H](Cc1ccc(O)cc1)C(N)=O)C(C)C)[C@@H](C)CC)C(C)C` [B4.1] (Ac-[Nle]VIVGAAWDYKY-NH2) it was greater than 5 µM; in that of `CCCC[C@H](N)C(=O)N[C@H](C(=O)N[C@H](C(=O)N[C@H](C(=O)NCC(=O)N[C@@H](C)C(=O)N[C@@H](C)C(=O)N[C@@H](Cc1c[nH]c2ccccc12)C(=O)N[C@@H](CC(=O)O)C(=O)N[C@@H](Cc1ccc(O)cc1)C(=O)N[C@@H](CCCCN)C(=O)N[C@@H](Cc1ccc(O)cc1)C(=O)O)C(C)C)[C@@H](C)CC)C(C)C` [B4.2] (H-[Nle]VIVGAAWDYKY-OH; N-terminus and C-terminus assumed), greater than 5 µM; in that of `CCCC[C@H](NC(C)=O)C(=O)N[C@H](C(=O)N[C@H](C(=O)N[C@H](C(=O)NCC(=O)N[C@@H](C)C(=O)N[C@@H](C)C(=O)N[C@@H](Cc1c[nH]c2ccccc12)C(=O)N[C@@H](CC(=O)O)C(=O)N[C@@H](CCCNC(=N)N)C(=O)N[C@@H](CCCCN)C(=O)N[C@@H](Cc1ccc(O)cc1)C(N)=O)C(C)C)[C@@H](C)CC)C(C)C` [B4.3] (Ac-[Nle]VIVGAAWDRKY-NH2), greater than 5 µM. Still for that read-out and setting: in the case of `CCCC[C@H](NC(=O)[C@@H](NC(=O)[C@@H](N)CCCNC(=N)N)C(C)C)C(=O)N[C@H](C(=O)N[C@@H](Cc1c[nH]c2ccccc12)C(=O)N[C@H](C(=O)NCC(=O)N[C@@H](C)C(=O)N[C@@H](C)C(=O)N[C@@H](Cc1c[nH]c2ccccc12)C(=O)N[C@@H](CC(=O)O)C(=O)N[C@@H](Cc1ccc(O)cc1)C(=O)N[C@@H](CCCCN)C(=O)N[C@@H](Cc1ccc(O)cc1)C(=O)O)C(C)C)C(C)C` [B4.4] (H-RV[Nle]VWVGAAWDYKY-OH; N-terminus and C-terminus assumed) it was greater than 5 µM; in that of `CCCC[C@H](NC(=O)[C@@H](NC(=O)[C@@H](N)CCCNC(=N)N)C(C)C)C(=O)N[C@H](C(=O)N[C@H](C(=O)N[C@H](C(=O)NCC(=O)N[C@@H](C)C(=O)N[C@@H](C)C(=O)N[C@@H](Cc1c[nH]c2ccccc12)C(=O)N[C@@H](CC(=O)O)C(=O)N[C@@H](Cc1ccc(O)cc1)C(=O)N[C@@H](CCCCN)C(=O)O)C(C)C)[C@@H](C)CC)C(C)C` [B4.5] (H-RV[Nle]VIVGAAWDYK-OH; N-terminus and C-terminus assumed), greater than 5 µM.

For the origin of these results see publication PMC11118832 (Biomolecules, 2024).
